Reference: patent publication US10993983B2, “Cyclic peptide epitopes and small-molecule mimics for inducing autophagy” (TRUSTEES OF TUFTS COLLEGE, priority 2016, dated 2021)
Marks after values point to notes of the source that are not given here. Where no end group is shown, it is not given here.

Columns and labels:
p62 = p62 degradation assay (p62/actin immunoblot);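 for Activity (μM) 10, p62/actin assay activity: HeLa cells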;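 for Activity (μM) 100, p62/actin assay activity: HeLa cells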;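 for Activity (μM) 20, p62/actin assay activity: HeLa cells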;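 for Activity (μM) 30, p62/actin assay activity: HeLa cells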;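 for Activity (μM) 50, p62/actin assay activity: HeLa cells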; format: cell-based; parameters: key: −: activity not reported; 0: decreased vs. WT; +: similar to WT; ++: modest increase vs. WT; +++: significant increase vs. WT; settings: for Activity (μM) 30, p62/actin assay activity: 30 μM; for Activity (μM) 50, p62/actin assay activity: 50 μM; for Activity (μM) 10, starred cell, p62/actin assay activity: Table 8, 10 μM marked * (footnote: data taken at 20 instead of 30 μM); for Activity (μM) 100, p62/actin assay activity: 100 μM; for Activity (μM) 5, p62/actin assay activity: 5 μM; for Activity (μM) 10, p62/actin assay activity: 10 μM; for Activity (μM) 20, p62/actin assay activity: 20 μM
Method: (§1) Cells were treated with peptide in OPTI-MEM (Thermo Scientific) acidified with 0.15% (v/v) 6N HCl for 3 hour. Cells were rinsed with Dulbecco's phosphate buffered saline (PBS) and lysed in lysis buffer (20 mM HEPES, 150 mM NaCl, 1 mM EDTA, 1% Triton X-100, protease inhibitor cocktail (Roche) on ice for 1 hour. Cell lysates were centrifuged at 16,000 g for 10 min at 4° C. and analyzed by SDS-PAGE and transferred to PVDF membranes. The membranes were blocked 5% non-fat dry milk (NFDM) in PBST (PBS+0.05% Tween-20) for 1 hour, then incubated overnight at 4° C. with primary antibody in 5% NFDM in PBST. The blots were washed with PBST and incubated with HRP-conjugated secondary antibodies diluted in 5% NFDM in PBST for 1 hour at room temperature. Membranes were washed with PBST and visualized with SuperSignal West Pico Chemiluminescent Substrate (Thermo Scientific). Semi-quantitative results were obtained by noting the lowest concentration at which both p62 degradation and LC3-I to LC3-II conversion were observed.
(§2) Compounds 1-10 were evaluated using the assays described in Examples 4 and 5. Activity for each compound was measured in the p62 degradation assay and the LC3 marker assay as described herein. The activity at each concentration of peptide is given as, for example, (0/+) where 0 would be the p62/actin assay activity and + would be the LC3 assay activity.

LC3 = LC3 marker assay (LC3-I to LC3-II conversion immunoblot);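 for Activity (μM) 10, LC3 assay activity: HeLa cells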;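 for Activity (μM) 100, LC3 assay activity: HeLa cells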;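 for Activity (μM) 20, LC3 assay activity: HeLa cells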;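 for Activity (μM) 30, LC3 assay activity: HeLa cells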;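 for Activity (μM) 50, LC3 assay activity: HeLa cells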; format: cell-based; parameters: key: −: activity not reported; 0: decreased vs. WT; +: similar to WT; ++: modest increase vs. WT; +++: significant increase vs. WT; settings: for Activity (μM) 30, LC3 assay activity: 30 μM; for Activity (μM) 50, LC3 assay activity: 50 μM; for Activity (μM) 10, starred cell, LC3 assay activity: Table 8, 10 μM marked * (footnote: data taken at 20 instead of 30 μM); for Activity (μM) 100, LC3 assay activity: 100 μM; for Activity (μM) 5, LC3 assay activity: 5 μM; for Activity (μM) 10, LC3 assay activity: 10 μM; for Activity (μM) 20, LC3 assay activity: 20 μM
Method: as §1, §2

[1] = Table 8, control compound T25, first symbol
[2] = Table 8, control compound T25, second symbol
[3] = Table 3, control vehicle, first symbol of cell
[4] = Table 3, control vehicle, first symbol
[5] = Table 3, control vehicle, second symbol of cell
[6] = Table 3, control vehicle, second symbol
[7] = Table 7, control compound T25, first symbol
[8] = Table 7, control compound T25, second symbol
[9] = Table 6, control DMSO, first symbol
[10] = Table 6, control DMSO, second symbol

Sequence: VCNACFHIWH [Compound 70]
- Activity (μM) 30, p62/actin assay activity (p62; [1]): 0/0
- Activity (μM) 50, p62/actin assay activity (p62; [1]): 0
- Activity (μM) 10, starred cell, p62/actin assay activity (p62; first symbol): 0/0*
- Activity (μM) 30, LC3 assay activity (LC3; [2]): 0/0
- Activity (μM) 50, LC3 assay activity (LC3; [2]): +
- Activity (μM) 10, starred cell, LC3 assay activity (LC3; second symbol): 0/0*

Sequence: VCNACFHIWH [Compound 52]
- Activity (μM) 50, p62/actin assay activity (p62; [1]): 0
- Activity (μM) 100, p62/actin assay activity (p62; [1]): 0
- Activity (μM) 50, LC3 assay activity (LC3; [2]): +
- Activity (μM) 100, LC3 assay activity (LC3; [2]): +

Sequence: VCNATCHIWH [Compound 33]
- Activity (μM) 5, p62/actin assay activity (p62; [1]): 0/0
- Activity (μM) 10, p62/actin assay activity (p62; [1]): 0
- Activity (μM) 30, p62/actin assay activity (p62; [1]): +++
- Activity (μM) 50, p62/actin assay activity (p62; [1]): +++/+++
- Activity (μM) 100, p62/actin assay activity (p62; [1]): +++/+++
- Activity (μM) 5, LC3 assay activity (LC3; [2]): 0/0
- Activity (μM) 10, LC3 assay activity (LC3; [2]): +
- Activity (μM) 30, LC3 assay activity (LC3; [2]): ++
- Activity (μM) 50, LC3 assay activity (LC3; [2]): +++/+++
- Activity (μM) 100, LC3 assay activity (LC3; [2]): +++/+++

Sequence: VWNATFHIWH (not fully specified (N-terminus, C-terminus)) [Compound 5, likely pa-10mer]
- Activity (μM) 10, p62/actin assay activity (p62; [3]): 0/0
- Activity (μM) 20, p62/actin assay activity (p62; [4]): 0/0
- Activity (μM) 30, p62/actin assay activity (p62; [1]): 0/0
- Activity (μM) 50, p62/actin assay activity (p62; [4]): 0
- Activity (μM) 50, p62/actin assay activity (p62; [1]): 0/0
- Activity (μM) 100, p62/actin assay activity (p62; [4]): +/+
- Activity (μM) 100, p62/actin assay activity (p62; [1]): 0/0
- Activity (μM) 10, starred cell, p62/actin assay activity (p62; first symbol): 0/0*
- Activity (μM) 10, LC3 assay activity (LC3; [5]): 0/0
- Activity (μM) 20, LC3 assay activity (LC3; [6]): 0/0
- Activity (μM) 30, LC3 assay activity (LC3; [2]): 0/0
- Activity (μM) 50, LC3 assay activity (LC3; [6]): +
- Activity (μM) 50, LC3 assay activity (LC3; [2]): 0/0
- Activity (μM) 100, LC3 assay activity (LC3; [6]): +/+
- Activity (μM) 100, LC3 assay activity (LC3; [2]): 0/0
- Activity (μM) 10, starred cell, LC3 assay activity (LC3; second symbol): 0/0*

Sequence: VWNATCHIWC [Compound 59]
- Activity (μM) 5, p62/actin assay activity (p62; [1]): 0/0
- Activity (μM) 10, p62/actin assay activity (p62; [1]): 0/0
- Activity (μM) 30, p62/actin assay activity (p62; [1]): 0/0
- Activity (μM) 5, LC3 assay activity (LC3; [2]): 0/0
- Activity (μM) 10, LC3 assay activity (LC3; [2]): 0/0
- Activity (μM) 30, LC3 assay activity (LC3; [2]): 0/0

Sequence: VCNATCHIWH [Compound 30]
- Activity (μM) 30, p62/actin assay activity (p62; [7]): 0/0
- Activity (μM) 30, p62/actin assay activity (p62; [1]): 0/0
- Activity (μM) 50, p62/actin assay activity (p62; [7]): 0/0
- Activity (μM) 50, p62/actin assay activity (p62; [1]): 0/0
- Activity (μM) 100, p62/actin assay activity (p62; [7]): +
- Activity (μM) 100, p62/actin assay activity (p62; [1]): 0/0
- Activity (μM) 10, starred cell, p62/actin assay activity (p62; first symbol): 0/0*
- Activity (μM) 30, LC3 assay activity (LC3; [8]): 0/0
- Activity (μM) 30, LC3 assay activity (LC3; [2]): 0/0
- Activity (μM) 50, LC3 assay activity (LC3; [8]): 0/0
- Activity (μM) 50, LC3 assay activity (LC3; [2]): 0/0
- Activity (μM) 100, LC3 assay activity (LC3; [8]): 0
- Activity (μM) 100, LC3 assay activity (LC3; [2]): 0/0
- Activity (μM) 10, starred cell, LC3 assay activity (LC3; second symbol): 0/0*

Sequence: VCNATCHIWH [Compound 28]
- Activity (μM) 30, p62/actin assay activity (p62; [7]): 0/0
- Activity (μM) 50, p62/actin assay activity (p62; [7]): 0/0
- Activity (μM) 100, p62/actin assay activity (p62; [7]): +++
- Activity (μM) 30, LC3 assay activity (LC3; [8]): 0/0
- Activity (μM) 50, LC3 assay activity (LC3; [8]): 0/0
- Activity (μM) 100, LC3 assay activity (LC3; [8]): 0

Sequence: VCNATCHIWH [Compound 25]
- Activity (μM) 10, p62/actin assay activity (p62; [9]): ++/++
- Activity (μM) 30, p62/actin assay activity (p62; [9]): ++/++
- Activity (μM) 50, p62/actin assay activity (p62; [9]): +++/+++
- Activity (μM) 100, p62/actin assay activity (p62; [9]): +++/+++
- Activity (μM) 10, LC3 assay activity (LC3; [10]): ++/++
- Activity (μM) 30, LC3 assay activity (LC3; [10]): ++/++
- Activity (μM) 50, LC3 assay activity (LC3; [10]): +++/+++
- Activity (μM) 100, LC3 assay activity (LC3; [10]): +++/+++

Sequence: VCNATCHIWH [Compound 24]
- Activity (μM) 10, p62/actin assay activity (p62; [9]): ++/++
- Activity (μM) 30, p62/actin assay activity (p62; [9]): +++
- Activity (μM) 50, p62/actin assay activity (p62; [9]): +++
- Activity (μM) 100, p62/actin assay activity (p62; [9]): +++
- Activity (μM) 10, LC3 assay activity (LC3; [10]): ++/++
- Activity (μM) 30, LC3 assay activity (LC3; [10]): ++
- Activity (μM) 50, LC3 assay activity (LC3; [10]): ++
- Activity (μM) 100, LC3 assay activity (LC3; [10]): ++

Sequence: YGRKKRRQRRRGGVWNATFHIWHD [7] (Ac-YGRKKRRQRRRGGVWNATFHIWHD-NH2) [Compound 7, likely Tat-11mer]
- Activity (μM) 10, p62/actin assay activity (p62; [3]): 0
- Activity (μM) 20, p62/actin assay activity (p62; [4]): +++/+++
- Activity (μM) 10, LC3 assay activity (LC3; [5]): ++
- Activity (μM) 20, LC3 assay activity (LC3; [6]): +++/+++
